5 molecules from ChEMBL document CHEMBL1130502, “Lipopeptide antifungal agents: Amine conjugates of the semi-synthetic pneumocandins L-731,373 and L-733,560” (Bioorg Med Chem Lett, 1997) can be followed below.

The target of one series is 1,3-beta-glucan synthase (Candida glabrata, UniProt F5BCZ9). As to the kind of experiment: Inhibition of 1,3-beta-glucan synthase. Also noted: species or system Candida glabrata CBS 138.
In series [1] the test system is Candida albicans. The experiment in a line: Tested for minimum fungicidal concentration (MFC) against Candida albicans (MY 1055). In kind it is functional.
Series [2] has as its system Candida albicans. As to the kind of experiment: Tested for in vitro minimum fungicidal concentration (MFC) against C. albicans; 0.03-0.5. The format is functional.
The subject of series [3] is Pichia kudriavzevii. The experiment in a line: Tested for in vitro minimum fungicidal concentration (MFC) against C. krusei; 1-2. In kind it is functional.
The subject of series [4] is Kluyveromyces marxianus. The experiment in a line: Tested for in vitro minimum fungicidal concentration (MFC) against C. pseudotropicalis; 0.06-0.5. The format is functional.
For series [5], the system named is Nakaseomyces glabratus. The experiment in a line: Tested for in vitro minimum fungicidal concentration (MFC) against C. glabrata; 0.5-1. In kind it is functional.
The test system of series [6] is Candida parapsilosis. As to the kind of experiment: Tested for in vitro minimum fungicidal concentration (MFC) against C. parapsilosis; 0.25-1. The format is functional.
The subject of series [7] is Meyerozyma guilliermondii. As to the kind of experiment: Tested for in vitro minimum fungicidal concentration (MFC) against C. guilliermondii; 0.5-4. In kind it is functional.
In series [8] the test system is Candida tropicalis. The experiment in a line: Tested for in vitro minimum fungicidal concentration (MFC) against C. tropicalis; 0.06-1. In kind it is functional.
Series [9] deals with Clavispora lusitaniae. The experiment in a line: Tested for in vitro minimum fungicidal concentration (MFC) against C. lusitaniae; 0.06-0.5. The format is functional.
In series [10] the test system is Cryptococcus neoformans. The experiment in a line: Tested for in vitro minimum fungicidal concentration (MFC) against C. neoformans; 8-32. The format is functional.
For series [11], the species on record is Mus musculus. The experiment in a line: […] anti-candida activity expressed as ED99.9 in a mouse model of disseminated candidiasis (TOKA). In kind it is functional.
Series [12] deals with Mus musculus. The experiment in a line: In vivo effective intraperitoneal dose to achieve least 50% survival in a mouse model of disseminated aspergillosis. The format is functional. As to conditions: ip.
For series [13], the species on record is Mus musculus. As to the kind of experiment: Percentage of mice with complete eradication of candida in kidneys. The format is functional, Kidney.
Series [14] in a line: Acute toxicity in mice after intravenous administration. As to conditions: mouse, in vivo.
The subject of series [15] is Candida albicans. The experiment in a line: Tested for in vitro minimum fungicidal concentration (MFC) against C. albicans; 0.25-1. The format is functional.
For series [16], the system named is Meyerozyma guilliermondii. As to the kind of experiment: Tested for in vitro minimum fungicidal concentration (MFC) against Candida guilliermondii 1-16. In kind it is functional.
In series [17] the test system is Pichia kudriavzevii. As to the kind of experiment: Tested for in vitro minimum fungicidal concentration (MFC) against C. krusei; 2-4. In kind it is functional.
Series [18] relates to Kluyveromyces marxianus. The experiment in a line: Tested for in vitro minimum fungicidal concentration (MFC) againstC. pseudotropicalis; 0.25-1. In kind it is functional.
Series [19] concerns Nakaseomyces glabratus. The experiment in a line: Tested for in vitro minimum fungicidal concentration (MFC) against C. glabrata; 1-4. The format is functional.
Series [20] relates to Candida tropicalis. As to the kind of experiment: Tested for in vitro minimum fungicidal concentration (MFC) against C. tropicalis; 0.25-1. In kind it is functional.
The subject of series [21] is Clavispora lusitaniae. The experiment in a line: Tested for in vitro minimum fungicidal concentration (MFC) against Candida lusitaniae 0.125-1. The format is functional.
Series [22] has as its system Candida albicans. As to the kind of experiment: Tested for in vitro minimum fungicidal concentration (MFC) against C. albicans; 0.06-0.5. In kind it is functional.
Series [23] relates to Pichia kudriavzevii. The experiment in a line: Tested for in vitro minimum fungicidal concentration (MFC) against C. krusei; 0.25-0.5. The format is functional.
The test system of series [24] is Candida parapsilosis. The experiment in a line: Tested for in vitro minimum fungicidal concentration (MFC) against C. parapsilosis; 0.5-1. The format is functional.
Series [25] deals with Meyerozyma guilliermondii. As to the kind of experiment: Tested for in vitro minimum fungicidal concentration (MFC) against C. guilliermondii; 0.125-0.5. The format is functional.
Series [26] deals with Candida tropicalis. The experiment in a line: Tested for in vitro minimum fungicidal concentration (MFC) against C. tropicalis; 0.25-0.5. The format is functional.
Series [27] has as its system Kluyveromyces marxianus. As to the kind of experiment: Tested for in vitro minimum fungicidal concentration (MFC) against C. pseudotropicalis; 0.125-0.5. In kind it is functional.
Series [28] relates to Clavispora lusitaniae. The experiment in a line: Tested for in vitro minimum fungicidal concentration (MFC) against C. lusitaniae; 0.5-2. In kind it is functional.
In series [29] the test system is Nakaseomyces glabratus. As to the kind of experiment: Tested for in vitro minimum fungicidal concentration (MFC) against C. glabrata; 0.125-0.5. In kind it is functional.
Series [30] has as its system Cryptococcus neoformans. As to the kind of experiment: Tested for in vitro minimum fungicidal concentration (MFC) against C. neoformans; 0.125-0.5. The format is functional.

The structures appear in SMILES notation. ≈ marks a conversion by molar mass, not a printed value. Bounds are passed on as bounds.

1,3-beta-glucan synthase, sequence (F5BCZ9 whole entry): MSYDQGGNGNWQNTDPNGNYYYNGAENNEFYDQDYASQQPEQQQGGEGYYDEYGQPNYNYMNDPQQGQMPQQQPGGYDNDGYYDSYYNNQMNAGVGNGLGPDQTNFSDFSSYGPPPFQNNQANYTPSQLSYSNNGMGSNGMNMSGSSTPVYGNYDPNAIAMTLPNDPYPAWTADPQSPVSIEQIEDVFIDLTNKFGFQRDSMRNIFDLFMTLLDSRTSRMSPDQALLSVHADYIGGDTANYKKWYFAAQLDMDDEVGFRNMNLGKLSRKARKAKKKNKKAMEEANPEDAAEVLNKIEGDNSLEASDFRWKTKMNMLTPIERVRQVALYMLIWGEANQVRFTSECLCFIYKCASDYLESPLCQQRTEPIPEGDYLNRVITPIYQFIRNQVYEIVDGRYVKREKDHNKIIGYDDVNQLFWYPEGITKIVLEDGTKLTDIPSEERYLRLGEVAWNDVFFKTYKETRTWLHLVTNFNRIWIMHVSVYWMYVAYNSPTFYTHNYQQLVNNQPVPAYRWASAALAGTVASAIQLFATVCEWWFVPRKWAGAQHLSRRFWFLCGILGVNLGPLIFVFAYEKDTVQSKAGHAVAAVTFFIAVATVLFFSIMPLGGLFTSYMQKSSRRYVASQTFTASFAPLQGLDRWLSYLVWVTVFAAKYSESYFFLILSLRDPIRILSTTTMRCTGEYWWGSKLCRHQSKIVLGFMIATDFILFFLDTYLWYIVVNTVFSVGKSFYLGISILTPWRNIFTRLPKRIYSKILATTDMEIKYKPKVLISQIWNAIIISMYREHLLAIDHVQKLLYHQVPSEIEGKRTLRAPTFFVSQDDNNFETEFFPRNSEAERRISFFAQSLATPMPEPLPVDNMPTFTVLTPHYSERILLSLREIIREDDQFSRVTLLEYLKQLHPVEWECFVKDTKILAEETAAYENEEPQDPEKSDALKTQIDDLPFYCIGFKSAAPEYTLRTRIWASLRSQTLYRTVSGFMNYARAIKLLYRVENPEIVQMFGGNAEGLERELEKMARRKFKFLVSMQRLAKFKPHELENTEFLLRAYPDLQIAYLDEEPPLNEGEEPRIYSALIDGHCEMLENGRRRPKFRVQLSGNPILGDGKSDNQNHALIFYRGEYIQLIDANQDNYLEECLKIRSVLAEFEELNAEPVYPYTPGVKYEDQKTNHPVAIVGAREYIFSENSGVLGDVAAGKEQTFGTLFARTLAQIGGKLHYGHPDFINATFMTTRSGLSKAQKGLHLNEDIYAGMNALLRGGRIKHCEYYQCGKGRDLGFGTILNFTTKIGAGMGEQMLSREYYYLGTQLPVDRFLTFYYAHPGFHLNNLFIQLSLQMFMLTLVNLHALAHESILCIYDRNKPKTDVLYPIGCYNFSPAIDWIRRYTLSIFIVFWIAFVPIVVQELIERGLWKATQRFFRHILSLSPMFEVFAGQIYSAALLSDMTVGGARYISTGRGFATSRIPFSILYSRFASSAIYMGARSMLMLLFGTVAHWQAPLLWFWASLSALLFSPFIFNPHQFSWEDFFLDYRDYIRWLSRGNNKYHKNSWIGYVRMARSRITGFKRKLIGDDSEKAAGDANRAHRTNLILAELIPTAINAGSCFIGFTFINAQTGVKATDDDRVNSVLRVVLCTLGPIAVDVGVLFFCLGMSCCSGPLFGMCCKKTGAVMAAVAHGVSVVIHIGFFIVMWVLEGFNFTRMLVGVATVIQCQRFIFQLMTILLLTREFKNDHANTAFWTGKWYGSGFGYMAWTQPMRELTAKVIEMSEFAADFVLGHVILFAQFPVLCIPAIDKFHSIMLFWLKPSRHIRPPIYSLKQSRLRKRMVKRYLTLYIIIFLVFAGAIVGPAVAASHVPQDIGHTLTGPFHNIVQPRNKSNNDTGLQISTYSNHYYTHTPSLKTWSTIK

Molecule `CCC(C)CC(C)CCCCCCCCC(=O)NC1C[C@@H](O)[C@@H](OCCN)NC(=O)C2CN(C[C@@H]2O)C(=O)[C@H]([C@H](O)CCN)NC(=O)[C@H]([C@H](O)[C@@H](O)c2ccc(O)cc2)NC(=O)C2C[C@@H](O)CN2C(=O)[C@H]([C@@H](C)O)NC1=O` (stereo partly specified) displayed an IC50 on 1,3-beta-glucan synthase of 1 nM. The molecule also gave an MFC with Candida albicans [1] of 0.125 mg/L (≈ 0.114 µM). The MFC90 was 0.5 mg/L (≈ 0.457 µM) in the series with Candida albicans [2]; 1 mg/L (≈ 0.914 µM) in the series on Pichia kudriavzevii [3]; 0.5 mg/L (≈ 0.457 µM) in the series on Kluyveromyces marxianus [4]; 1 mg/L (≈ 0.914 µM) in the series on Nakaseomyces glabratus [5]; 0.5 mg/L (≈ 0.457 µM) against Candida parapsilosis [6]; 4 mg/L (≈ 3.66 µM) in series [7]. Also, the MFC90 against Candida tropicalis [8] turned out to be 0.5 mg/L (≈ 0.457 µM); in the series on Clavispora lusitaniae [9], 0.5 mg/L (≈ 0.457 µM); with Cryptococcus neoformans [10], 32 mg/L (≈ 29.2 µM). In the series filed under Mus musculus [11], the ED99.9 was found to be 0.09 mg/kg. The 50% effective dose (ED50) in the series on Mus musculus [12] worked out at 0.03 mg/kg. In the series filed under Mus musculus [13], the Sterilized stood at 80%. In series [14], this molecule registered a Dose of 30 mg/kg.
The molecule `CCC(C)CC(C)CCCCCCCCC(=O)NC1C[C@@H](O)[C@@H](OCCN)NC(=O)C2CN(C[C@@H]2O)C(=O)[C@H]([C@H](O)CCNC(=O)[C@@H](N)CCCN)NC(=O)[C@H]([C@H](O)[C@@H](O)c2ccc(O)cc2)NC(=O)C2C[C@@H](O)CN2C(=O)[C@H]([C@@H](C)O)NC1=O` (stereo partly specified) displayed a concentration for half-maximal inhibition (IC50) on 1,3-beta-glucan synthase of 1.5 nM. In the series on Candida albicans [1], this molecule showed an MFC of less than 0.06 mg/L. Also, the MFC90 in the series with Candida albicans [15] was found to be 1 mg/L (≈ 0.827 µM); in [16] it was 8 mg/L (≈ 6.62 µM); against Pichia kudriavzevii [17], 4 mg/L (≈ 3.31 µM); with Kluyveromyces marxianus [18] it was 1 mg/L (≈ 0.827 µM); in the series on Nakaseomyces glabratus [19], 2 mg/L (≈ 1.65 µM); in the series on Candida parapsilosis [6], 1 mg/L (≈ 0.827 µM). Also, the MFC90 against Candida tropicalis [20] was determined as 1 mg/L (≈ 0.827 µM); with Clavispora lusitaniae [21] it was 0.5 mg/L (≈ 0.414 µM); against Cryptococcus neoformans [10], 32 mg/L (≈ 26.5 µM). The molecule also gave an ED99.9 in the series listed under Mus musculus [11] of 0.09 mg/kg. In addition, the 50% effect level with Mus musculus [12] (ED50) was put at a dose of 0.03 mg/kg. Besides, the Sterilized in the series filed under Mus musculus [13] is 70%. This molecule also yielded a Dose in series [14] of 80 mg/kg.
Take `C[C@@H]1[C@H](O)[C@@H](C)/C=C/C=C/C=C/C=C/C=C/C=C/C=C/[C@H](O[C@@H]2O[C@H](C)[C@@H](O)[C@H](N)[C@@H]2O)C[C@@H]2O[C@](O)(C[C@@H](O)C[C@@H](O)[C@H](O)CC[C@@H](O)C[C@@H](O)CC(=O)O[C@H]1C)C[C@H](O)[C@H]2C(=O)O` [AMPHOTERICIN B]: the MFC90 in the series on Candida albicans [22] turned out to be 0.25 mg/L (≈ 0.271 µM); with Pichia kudriavzevii [23], 0.5 mg/L (≈ 0.541 µM); in the series with Candida parapsilosis [24], 1 mg/L (≈ 1.08 µM); in series [25], 0.5 mg/L (≈ 0.541 µM); in the series on Candida tropicalis [26], 0.5 mg/L (≈ 0.541 µM); with Kluyveromyces marxianus [27] it was 0.5 mg/L (≈ 0.541 µM). Besides, the figures for the MFC90 against Clavispora lusitaniae [28], with Nakaseomyces glabratus [29] and against Cryptococcus neoformans [30] were 2 mg/L (≈ 2.16 µM), 0.5 mg/L (≈ 0.541 µM) and 0.5 mg/L (≈ 0.541 µM), respectively.
On 1,3-beta-glucan synthase, `CCC(C)CC(C)CCCCCCCCC(=O)NC1C[C@@H](O)[C@@H](O)NC(=O)C2CN(C[C@@H]2O)C(=O)[C@H]([C@H](O)CCNC(=O)[C@@H](N)CN)NC(=O)[C@H]([C@H](O)[C@@H](O)c2ccc(O)cc2)NC(=O)C2C[C@@H](O)CN2C(=O)[C@H]([C@@H](C)O)NC1=O` (stereo partly specified) had an IC50 of 30 nM. Further, in the series on Candida albicans [1], the minimum fungicidal concentration (MFC) turned out to be 1 mg/L (≈ 0.879 µM). For the same molecule, in the series listed under Mus musculus [11], the ED99.9 came out at 1.5 mg/kg. In addition, the median effective dose (ED50) in the series with Mus musculus [12] is more than 1.25 mg/kg. In addition, the Sterilized in the series listed under Mus musculus [13] is listed as 100%. This molecule also showed a Dose in series [14] of more than 250 mg/kg.
At 1,3-beta-glucan synthase, `CCC(C)CC(C)CCCCCCCCC(=O)NC1C[C@@H](O)[C@@H](OCCN)NC(=O)C2CN(C[C@@H]2O)C(=O)[C@H]([C@H](O)CCNC(=O)[C@@H](N)CN)NC(=O)[C@H]([C@H](O)[C@@H](O)c2ccc(O)cc2)NC(=O)C2C[C@@H](O)CN2C(=O)[C@H]([C@@H](C)O)NC1=O` (stereo partly specified) yielded an IC50 of 4 nM. Also, the minimum fungicidal concentration (MFC) in the series on Candida albicans [1] came to 1 mg/L (≈ 0.847 µM). In the series filed under Mus musculus [11], the ED99.9 came to 0.375 mg/kg. The molecule further registered an ED50 in the series on Mus musculus [12] of 0.07 mg/kg. In the series listed under Mus musculus [13], this molecule gave a Sterilized of 100%. This molecule also gave a Dose in series [14] of more than 100 mg/kg.

What is called IC50 is the midpoint of a concentration-inhibition curve. Low readings indicate higher potency, high ones lower potency. Broadly, the MFC is the smallest concentration meeting the test's criterion for killing the fungus. As usually defined, the ED50 is the dose that gives a 50% effect, or the effect in half of the subjects. The low end stands for an effect at a small dose, the high end for a need for a large dose.
